Assays:
[1] = target: Human immunodeficiency virus type 1 protease (Human immunodeficiency virus 1, UniProt Q72874); assay: Inhibition of HIV-1 protease by fluorescence resonance energy transfer analysis
[2] = system: Human immunodeficiency virus 1; assay: Antiviral activity against DRV-resistant HIV-1 assessed as inhibition of viral growth by single-round infection assay; assay type: functional, organism-based; details: Human immunodeficiency virus 1, DRV
[3] = system: Human immunodeficiency virus 1; assay: Antiviral activity against HIV-1 NL4-3 assessed as inhibition of viral growth; assay type: functional, organism-based; details: Human immunodeficiency virus 1, NL4-3
[4] = Resistance index, ratio of EC50 for antiviral activity against DRV-resistant HIV-1 to EC50 for antiviral activity against wild type HIV-1 NL4-3; assay type: functional, Human immunodeficiency virus 1

Row | Compound | IC50 [1] | further results
1 | CSc1ccc(S(=O)(=O)N(CC(C)C)C[C@@H](O)[C@H](Cc2ccccc2)NC(=O)Cc2ccc(O)c(O)c2)cc1 | 2.29 nM | –
2 | COc1ccc(CC(=O)N[C@@H](Cc2ccccc2)[C@H](O)CN(CC(C)C)S(=O)(=O)c2ccc(N)cc2)cc1 | 377 nM | –
3 | COc1ccc(S(=O)(=O)N(CC(C)C)C[C@@H](O)[C@H](Cc2ccccc2)NC(=O)Cc2cccc(OC)c2)cc1 | 6.95 nM | –
4 | COc1ccc(S(=O)(=O)N(CC(C)C)C[C@@H](O)[C@H](Cc2ccccc2)NC(=O)Cc2ccc(O)c(O)c2)cc1 | 0.54 nM | EC50 [2]: 23200 nM; EC50 [3]: 1860 nM; Ratio EC50 [4]: 12.5
5 | COc1ccc(CC(=O)N[C@@H](Cc2ccccc2)[C@H](O)CN(CC(C)C)S(=O)(=O)c2ccc(SC)cc2)cc1OC | 171 nM | –
6 | COc1ccc(S(=O)(=O)N(CC(C)C)C[C@@H](O)[C@H](Cc2ccccc2)NC(=O)Cc2ccc(OC)c(O)c2)cn1 | 13 nM | –
7 | COc1cccc(CC(=O)N[C@@H](Cc2ccccc2)[C@H](O)CN(CC(C)C)S(=O)(=O)c2ccc(N)cc2)c1 | 35.1 nM | –
8 | CC(C)CN(C[C@@H](O)[C@H](Cc1ccccc1)NC(=O)Cc1ccc(O)c(O)c1)S(=O)(=O)c1ccc(N)cc1 | 9.46 nM | –
9 | COc1ccc(S(=O)(=O)N(CC(C)C)C[C@@H](O)[C@H](Cc2ccccc2)NC(=O)Cc2ccc(O)cc2)cc1 | 2.22 nM | –
10 | COc1ccc(CC(=O)N[C@@H](Cc2ccccc2)[C@H](O)CN(CC(C)C)S(=O)(=O)c2ccc(OC)cc2)cc1 | 21 nM | –
11 | CC(C)CN(C[C@@H](O)[C@H](Cc1ccccc1)NC(=O)Cc1ccc(O)cc1)S(=O)(=O)c1ccc(N)cc1 | 32 nM | –
12 | COc1ccc(S(=O)(=O)N(CC(C)C)C[C@@H](O)[C@H](Cc2ccccc2)NC(=O)Cc2ccc(O)c(O)c2)cn1 | 2.87 nM | –
13 | COc1ccc(CC(=O)N[C@@H](Cc2ccccc2)[C@H](O)CN(CC(C)C)S(=O)(=O)c2ccc(SC)cc2)cc1O | 9.28 nM | –
14 | COc1ccc(S(=O)(=O)N(CC(C)C)C[C@@H](O)[C@H](Cc2ccccc2)NC(=O)Cc2ccc(O)c(OC)c2)cc1 | 50 nM | –
15 | CSc1ccc(S(=O)(=O)N(CC(C)C)C[C@@H](O)[C@H](Cc2ccccc2)NC(=O)Cc2cccc(O)c2)cc1 | 2.18 nM | EC50 [2]: 2360 nM; EC50 [3]: 940 nM; Ratio EC50 [4]: 2.51
16 | COc1ccc(S(=O)(=O)N(CC(C)C)C[C@@H](O)[C@H](Cc2ccccc2)NC(=O)Cc2ccc(OC)c(OC)c2)cc1 | 85 nM | –

Row | Compound | IC50 [1] | further results
17 | CSc1ccc(S(=O)(=O)N(CC(C)C)C[C@@H](O)[C@H](Cc2ccccc2)NC(=O)Cc2ccc(O)cc2)cc1 | 4.2 nM | –
18 | COc1cccc(CC(=O)N[C@@H](Cc2ccccc2)[C@H](O)CN(CC(C)C)S(=O)(=O)c2ccc(OC)nc2)c1 | 12.5 nM | –
19 | COc1cccc(CC(=O)N[C@@H](Cc2ccccc2)[C@H](O)CN(CC(C)C)S(=O)(=O)c2ccc(SC)cc2)c1 | 30.4 nM | –
20 | CC(C)CN(C[C@@H](O)[C@H](Cc1ccccc1)NC(=O)Cc1cccc(O)c1)S(=O)(=O)c1ccc(N)cc1 | 5.55 nM | –
21 | COc1ccc(S(=O)(=O)N(CC(C)C)C[C@@H](O)[C@H](Cc2ccccc2)NC(=O)Cc2ccc(O)cc2)cn1 | 7.26 nM | –
22 | COc1ccc(CC(=O)N[C@@H](Cc2ccccc2)[C@H](O)CN(CC(C)C)S(=O)(=O)c2ccc(N)cc2)cc1OC | 1020 nM | –
23 | COc1ccc(S(=O)(=O)N(CC(C)C)C[C@@H](O)[C@H](Cc2ccccc2)NC(=O)Cc2ccc(OC)c(O)c2)cc1 | 3.97 nM | –
24 | COc1ccc(CC(=O)N[C@@H](Cc2ccccc2)[C@H](O)CN(CC(C)C)S(=O)(=O)c2ccc(N)cc2)cc1O | 27.5 nM | –
25 | COc1ccc(S(=O)(=O)N(CC(C)C)C[C@@H](O)[C@H](Cc2ccccc2)NC(=O)Cc2ccc(OC)c(OC)c2)cn1 | 176 nM | –
26 | COc1ccc(S(=O)(=O)N(CC(C)C)C[C@@H](O)[C@H](Cc2ccccc2)NC(=O)Cc2cccc(O)c2)cc1 | 0.87 nM | EC50 [2]: 8850 nM; EC50 [3]: 1050 nM; Ratio EC50 [4]: 8.43
27 | COc1ccc(S(=O)(=O)N(CC(C)C)C[C@@H](O)[C@H](Cc2ccccc2)NC(=O)Cc2cccc(O)c2)cn1 | 1.2 nM | EC50 [2]: 5020 nM; EC50 [3]: 950 nM; Ratio EC50 [4]: 5.26
28 | COc1ccc(S(=O)(=O)N(CC(C)C)C[C@@H](O)[C@H](Cc2ccccc2)NC(=O)Cc2ccc(O)c(OC)c2)cn1 | 170 nM | –
29 | COc1cc(CC(=O)N[C@@H](Cc2ccccc2)[C@H](O)CN(CC(C)C)S(=O)(=O)c2ccc(N)cc2)ccc1O | 379 nM | –
30 | COc1ccc(CC(=O)N[C@@H](Cc2ccccc2)[C@H](O)CN(CC(C)C)S(=O)(=O)c2ccc(OC)nc2)cc1 | 51.8 nM | –
31 | COc1cc(CC(=O)N[C@@H](Cc2ccccc2)[C@H](O)CN(CC(C)C)S(=O)(=O)c2ccc(SC)cc2)ccc1O | 116 nM | –
32 | COc1ccc(CC(=O)N[C@@H](Cc2ccccc2)[C@H](O)CN(CC(C)C)S(=O)(=O)c2ccc(SC)cc2)cc1 | 85.8 nM | –

From ChEMBL document CHEMBL5335807, “Rational design, synthesis and biological evaluation of novel HIV-1 protease inhibitors containing 2-phenylacetamide derivatives as P2 ligands with potent activity against DRV-Resistant HIV-1 variants” (Bioorg Med Chem Lett, 2024)
